Data: patent US20250170248A1, “SMARCA DEGRADERS AND USES THEREOF” (Kymera Therapeutics, Inc., priority 2021, published 2025)

Assays:
Type in all cases: cell-based
[1] = target: T1, SMARCA2 (Homo sapiens, UniProt P51531); experiment: MSD SMARCA2 degradation in A549 cell line; details: for SMARCA2 MSD A549 degradation 24 h: Average Dmax % / DC50: A549 cells; for DC50 / Dmax: 24 h; for DC50: read-out: SMARCA2 MSD A549 degradation 24 h: Average external-Abs DC50; for Dmax: A549, A549 cells
Procedure, shortened: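 SMARCA2 protein remaining after 24 h exposure of A549 cells (top concentration 1000 nM, 3-fold dilutions) was measured by MSD electrochemiluminescence immunoassay of cell lysates. Results are given as binned DC50 and maximal degradation (Dmax) codes.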

[2] = target: T2, SMARCA4 (Homo sapiens, UniProt P51532); experiment: SMARCA4 Western blot degradation in MV4-11 cells; details: for SMARCA4 MSD MV411 degradation 24 h: average Dmax % / DC50: MV4-11 cells; for DC50 / Dmax: 24 h; for DC50: read-out: SMARCA4 MSD MV411 degradation 24 h: Mean external-Abs DC50; for Dmax: MV4-11, MV4-11 cells, read-out: SMARCA4 MSD MV411 degradation 24 h: average Dmax %
T2 construct: SMARCA2/SMARCA4 protein degradation selectivity in MV4-11 cells; endogenous in cells; host or cells: MV4-11
Procedure, shortened: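 Protein levels quantified by LI-COR Western blot (beta-actin loading control) in RIPA lysates of MV4-11 cells after 24 h compound exposure. Degradation reported as DC50, Dmax % at 24 h and SMARCA2 vs SMARCA4 selectivity, each binned into letter codes.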

[3] = target: T1, SMARCA2; experiment: SMARCA2 Western blot degradation in MV4-11 cells; set-up: SMARCA2/SMARCA4 protein degradation selectivity in MV4-11 cells; endogenous in cells; host or cells: MV4-11; details: for SMARCA2 MSD MV411 degradation 24 h: average Dmax % / DC50 / Selectivity in MV411: MV4-11 cells; for SMARCA2 MSD MV411 degradation 24 h: average Dmax % / DC50 / Dmax: 24 h; for DC50: read-out: SMARCA2 MSD MV411 degradation 24 h: Mean external-Abs DC50; for Selectivity in MV411: SMARCA2/4 selectivity; for Dmax: MV4-11, MV4-11 cells, read-out: SMARCA2 MSD MV411 degradation 24 h: average Dmax %

T1 sequence (P51531 whole entry): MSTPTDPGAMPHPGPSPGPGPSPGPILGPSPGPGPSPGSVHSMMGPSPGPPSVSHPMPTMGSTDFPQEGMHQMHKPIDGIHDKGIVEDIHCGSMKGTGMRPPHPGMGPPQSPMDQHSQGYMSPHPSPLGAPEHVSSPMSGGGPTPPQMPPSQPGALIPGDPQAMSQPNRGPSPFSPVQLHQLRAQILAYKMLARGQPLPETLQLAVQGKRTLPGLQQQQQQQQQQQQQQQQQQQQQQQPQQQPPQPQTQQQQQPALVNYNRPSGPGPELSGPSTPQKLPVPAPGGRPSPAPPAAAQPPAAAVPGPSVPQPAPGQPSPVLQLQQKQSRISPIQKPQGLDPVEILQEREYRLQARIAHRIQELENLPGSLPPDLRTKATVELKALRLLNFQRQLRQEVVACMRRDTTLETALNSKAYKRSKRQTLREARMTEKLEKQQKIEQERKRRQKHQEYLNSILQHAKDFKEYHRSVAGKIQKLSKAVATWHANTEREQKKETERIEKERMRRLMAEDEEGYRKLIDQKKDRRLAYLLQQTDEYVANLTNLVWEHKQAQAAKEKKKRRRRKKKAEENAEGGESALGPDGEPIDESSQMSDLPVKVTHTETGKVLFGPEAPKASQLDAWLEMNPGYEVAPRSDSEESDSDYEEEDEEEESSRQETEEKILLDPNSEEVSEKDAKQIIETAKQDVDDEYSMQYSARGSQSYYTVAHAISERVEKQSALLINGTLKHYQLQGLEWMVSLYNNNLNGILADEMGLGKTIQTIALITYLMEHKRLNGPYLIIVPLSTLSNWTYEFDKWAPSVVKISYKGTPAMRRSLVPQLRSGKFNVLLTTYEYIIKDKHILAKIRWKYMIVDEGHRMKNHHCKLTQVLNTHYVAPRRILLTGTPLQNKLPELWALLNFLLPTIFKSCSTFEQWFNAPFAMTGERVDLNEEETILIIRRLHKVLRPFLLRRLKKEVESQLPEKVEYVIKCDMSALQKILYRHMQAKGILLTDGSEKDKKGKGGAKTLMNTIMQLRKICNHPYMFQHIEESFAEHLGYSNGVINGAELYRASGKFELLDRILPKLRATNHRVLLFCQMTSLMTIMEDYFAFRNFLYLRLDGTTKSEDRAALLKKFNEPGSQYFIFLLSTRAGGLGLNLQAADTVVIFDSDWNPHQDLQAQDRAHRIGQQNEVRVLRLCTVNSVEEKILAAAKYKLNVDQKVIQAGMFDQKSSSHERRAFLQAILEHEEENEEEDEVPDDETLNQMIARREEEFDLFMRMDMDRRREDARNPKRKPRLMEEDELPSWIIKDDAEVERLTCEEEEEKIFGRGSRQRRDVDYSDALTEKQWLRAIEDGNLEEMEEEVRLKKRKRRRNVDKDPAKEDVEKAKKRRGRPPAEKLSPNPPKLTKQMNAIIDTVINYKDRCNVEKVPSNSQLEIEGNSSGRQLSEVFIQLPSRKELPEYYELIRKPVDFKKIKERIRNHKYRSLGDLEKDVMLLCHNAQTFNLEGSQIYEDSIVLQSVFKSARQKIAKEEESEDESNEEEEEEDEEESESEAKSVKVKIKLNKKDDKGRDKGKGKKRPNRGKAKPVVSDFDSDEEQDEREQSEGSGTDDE
T2 sequence (P51532 whole entry): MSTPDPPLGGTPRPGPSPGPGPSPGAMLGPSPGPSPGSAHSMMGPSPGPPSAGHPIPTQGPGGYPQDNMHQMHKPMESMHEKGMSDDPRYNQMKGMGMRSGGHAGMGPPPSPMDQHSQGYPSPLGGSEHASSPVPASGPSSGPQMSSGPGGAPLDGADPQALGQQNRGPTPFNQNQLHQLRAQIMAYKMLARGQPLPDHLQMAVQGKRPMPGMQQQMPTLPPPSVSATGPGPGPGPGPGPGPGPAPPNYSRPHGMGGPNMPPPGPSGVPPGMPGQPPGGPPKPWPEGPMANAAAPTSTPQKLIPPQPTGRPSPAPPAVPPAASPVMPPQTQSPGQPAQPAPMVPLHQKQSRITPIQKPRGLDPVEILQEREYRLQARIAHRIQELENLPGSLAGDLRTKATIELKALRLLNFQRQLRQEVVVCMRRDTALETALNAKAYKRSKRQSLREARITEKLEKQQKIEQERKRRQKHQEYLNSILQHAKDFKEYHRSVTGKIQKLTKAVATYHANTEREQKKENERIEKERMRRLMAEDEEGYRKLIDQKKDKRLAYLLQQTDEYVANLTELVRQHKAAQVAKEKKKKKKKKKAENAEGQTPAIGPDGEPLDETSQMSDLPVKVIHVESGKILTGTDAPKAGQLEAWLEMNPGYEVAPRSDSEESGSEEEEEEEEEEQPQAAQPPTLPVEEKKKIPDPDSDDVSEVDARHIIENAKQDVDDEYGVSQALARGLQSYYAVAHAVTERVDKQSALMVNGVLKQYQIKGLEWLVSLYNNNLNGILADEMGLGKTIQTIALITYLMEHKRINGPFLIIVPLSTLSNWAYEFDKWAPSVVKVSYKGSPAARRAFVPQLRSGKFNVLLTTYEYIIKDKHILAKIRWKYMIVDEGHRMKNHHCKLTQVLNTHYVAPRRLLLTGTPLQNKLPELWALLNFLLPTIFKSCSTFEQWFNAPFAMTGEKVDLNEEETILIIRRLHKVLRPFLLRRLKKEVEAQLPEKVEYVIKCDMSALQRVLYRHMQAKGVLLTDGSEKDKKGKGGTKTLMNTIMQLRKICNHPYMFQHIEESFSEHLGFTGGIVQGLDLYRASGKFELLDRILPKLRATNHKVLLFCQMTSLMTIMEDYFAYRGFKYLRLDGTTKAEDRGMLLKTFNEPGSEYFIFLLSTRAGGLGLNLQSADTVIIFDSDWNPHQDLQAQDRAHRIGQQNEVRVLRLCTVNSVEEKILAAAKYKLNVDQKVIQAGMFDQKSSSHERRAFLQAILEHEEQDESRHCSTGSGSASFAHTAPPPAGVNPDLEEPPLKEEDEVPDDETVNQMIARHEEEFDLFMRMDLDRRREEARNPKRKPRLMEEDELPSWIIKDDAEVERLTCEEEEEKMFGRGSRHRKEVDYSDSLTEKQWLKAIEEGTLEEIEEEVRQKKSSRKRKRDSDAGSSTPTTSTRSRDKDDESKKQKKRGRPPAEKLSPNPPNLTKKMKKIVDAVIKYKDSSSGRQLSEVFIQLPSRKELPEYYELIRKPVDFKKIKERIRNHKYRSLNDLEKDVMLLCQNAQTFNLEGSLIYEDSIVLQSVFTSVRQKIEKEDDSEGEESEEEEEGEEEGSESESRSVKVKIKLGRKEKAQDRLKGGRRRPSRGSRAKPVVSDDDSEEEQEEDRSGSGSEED

C#Cc1ccc(CNC(=O)[C@@H]2C[C@@H](O)CN2C(=O)[C@@H](NC(=O)[C@H]2CC3(C2)C[C@H](N2CCC(N4CCC(N5CCN6c7cc(-c8ccccc8O)nnc7NC[C@H]6C5)CC4)CC2)C3)C(C)(C)C)c(Cl)c1 (single isomer, unassigned) [I-230]
SMARCA2 MSD A549 degradation 24 h: Average Dmax % [1]: A (A (>90% degradation))
DC50 [1]: 10 to 50 nM
SMARCA4 MSD MV411 degradation 24 h: average Dmax % [2]: C (C (50-70% degradation))
DC50 [2]: > 100 nM
SMARCA2 MSD MV411 degradation 24 h: average Dmax % [3]: B (B (>70-90% degradation))
DC50 [3]: 1 to 10 nM
Selectivity in MV411 [3]: B (B (>100-500 fold))

Cc1ncsc1-c1ccc(CNC(=O)[C@@H]2C[C@@H](O)CN2C(=O)[C@@H](NC(=O)[C@H]2CC3(C2)C[C@H](N2CCN(c4cnc(N5CCc6[nH]c7nnc(-c8ccccc8O)cc7c6[C@H]5C)nc4)CC2)C3)C(C)(C)C)cc1 (single isomer, unassigned) [I-76]
Dmax [1]: > 90%
DC50 [1]: 10 to 50 nM
Dmax [2]: 50 to 70%
DC50 [2]: > 100 nM
Dmax [3]: 70 to 90%
DC50 [3]: 1 to 10 nM
Selectivity in MV411 [3]: C (C (10-100 fold))

C#Cc1ccc(CNC(=O)[C@@H]2C[C@@H](O)CN2C(=O)[C@@H](NC(=O)N2CCC(C(=O)N3CCC(N4CCC(N5CCc6[nH]c7nnc(-c8ccccc8O)cc7c6[C@H]5C)CC4)CC3)CC2)C(C)(C)C)cc1 [I-192]
Dmax [1]: 70 to 90%
DC50 [1]: > 100 nM
Dmax [2]: < 50%
DC50 [2]: > 100 nM
Dmax [3]: < 50%
DC50 [3]: > 100 nM
Selectivity in MV411 [3]: C (C (10-100 fold))

C#Cc1ccc(C2(NC(=O)[C@@H]3C[C@@H](O)CN3C(=O)[C@@H](NC(=O)N3CC4(CC(N5CCC(N6CCC(N7CCc8[nH]c9nnc(-c%10ccccc%10O)cc9c8[C@H]7C)CC6)CC5)C4)C3)C(C)(C)C)CC2)cc1 [I-210]
Dmax [1]: > 90%
DC50 [1]: > 100 nM
Dmax [2]: < 50%
DC50 [2]: > 100 nM
Dmax [3]: 50 to 70%
DC50 [3]: 10 to 100 nM
Selectivity in MV411 [3]: C (C (10-100 fold))

C#Cc1ccc([C@H](C)NC(=O)[C@@H]2C[C@@H](O)CN2C(=O)C(c2cc(N3CCC(N4CCC(N5CCC(CN6CCN7c8cc(-c9ccccc9O)nnc8NC[C@H]7C6)CC5)CC4)CC3)no2)C(C)C)cc1 (stereo partly drawn) [I-291]
Dmax [1]: > 90%
DC50 [1]: 10 to 50 nM
Dmax [2]: > 90%
DC50 [2]: 10 to 100 nM
Dmax [3]: > 90%
DC50 [3]: 1 to 10 nM
Selectivity in MV411 [3]: C (C (10-100 fold))

C#Cc1ccc(CNC(=O)[C@@H]2C[C@@H](O)CN2C(=O)[C@@H](NC(=O)N2CCN(C[C@H]3CC[C@@H](N4CCc5[nH]c6nnc(-c7ccccc7O)cc6c5[C@H]4C)CC3)CC2)C(C)(C)C)cc1 [I-199]
Dmax [1]: > 90%
DC50 [1]: > 100 nM
Dmax [2]: < 50%
DC50 [2]: > 100 nM
Dmax [3]: 50 to 70%
DC50 [3]: 10 to 100 nM
Selectivity in MV411 [3]: C (C (10-100 fold))

C#Cc1ccc(CNC(=O)[C@@H]2C[C@@H](O)CN2C(=O)[C@@H](NC(=O)N2CC3(CC(N4CCC(c5cnc(N6CCc7[nH]c8nnc(-c9ccccc9O)cc8c7[C@H]6C)nc5)CC4)C3)C2)C(C)(C)C)c(OCCCOC)c1 [I-128]
Dmax [1]: > 90%
DC50 [1]: < 10 nM
Dmax [2]: > 90%
DC50 [2]: 10 to 100 nM
Dmax [3]: > 90%
DC50 [3]: 1 to 10 nM
Selectivity in MV411 [3]: D (D (<10 fold))

C#Cc1ccc(CNC(=O)[C@@H]2C[C@@H](O)CN2C(=O)[C@@H](NC(=O)[C@H]2CCC3(CC2)C[C@H](N2CCC(c4cnc(N5CCN6c7cc(-c8ccccc8O)nnc7NC[C@H]6C5)nc4)CC2)C3)C(C)(C)CCO)cc1 (single isomer, unassigned) [I-131]
Dmax [1]: > 90%
DC50 [1]: 10 to 50 nM
Dmax [2]: 50 to 70%
DC50 [2]: 10 to 100 nM
Dmax [3]: > 90%
DC50 [3]: < 1 nM
Selectivity in MV411 [3]: C (C (10-100 fold))

Cc1ncsc1-c1ccc(CNC(=O)[C@@H]2C[C@@H](O)CN2C(=O)C(c2cc(N3CCC(CCN4CCC(c5cnc(N6CCc7[nH]c8nnc(-c9ccccc9O)cc8c7[C@H]6C)nc5)CC4)CC3)no2)C(C)C)cc1 (stereo partly drawn) [I-7]
Dmax [1]: > 90%
DC50 [1]: 10 to 50 nM
Dmax [2]: > 90%
DC50 [2]: 10 to 100 nM
Dmax [3]: > 90%
DC50 [3]: 1 to 10 nM
Selectivity in MV411 [3]: C (C (10-100 fold))

Cc1ncsc1-c1ccc(CNC(=O)[C@@H]2C[C@@H](O)CN2C(=O)C(c2cc(N3CCC(CCN4CCC(c5cnc(N6CCc7[nH]c8nnc(-c9ccccc9O)cc8c7[C@@H]6C)nc5)CC4)CC3)no2)C(C)C)cc1 (single isomer, unassigned) [I-8]
Dmax [1]: > 90%
DC50 [1]: 10 to 50 nM
Dmax [2]: 70 to 90%
DC50 [2]: 10 to 100 nM
Dmax [3]: 70 to 90%
DC50 [3]: 1 to 10 nM
Selectivity in MV411 [3]: D (D (<10 fold))

C#Cc1ccc(CNC(=O)[C@@H]2C[C@@H](O)CN2C(=O)[C@@H](NC(=O)[C@H]2CC[C@@H](CN3CCC(c4cnc(N5CCN6c7cc(-c8ccccc8O)nnc7NC[C@H]6C5)nc4)CC3)CC2)C(C)(C)C)cc1 [I-293]
Dmax [1]: > 90%
DC50 [1]: 10 to 50 nM
Dmax [2]: 50 to 70%
DC50 [2]: > 100 nM
Dmax [3]: 70 to 90%
DC50 [3]: 1 to 10 nM
Selectivity in MV411 [3]: B (B (>100-500 fold))

C#Cc1ccc(C2(NC(=O)[C@@H]3C[C@@H](O)CN3C(=O)[C@@H](NC(=O)[C@H]3CC4(C3)C[C@H](N3CCC(N5CCC(N6CCN7c8cc(-c9ccccc9O)nnc8NC[C@H]7C6)CC5)CC3)C4)C(C)(C)C)CC2)cc1 (single isomer, unassigned) [I-211]
Dmax [1]: > 90%
DC50 [1]: 50 to 100 nM
Dmax [2]: < 50%
DC50 [2]: > 100 nM
Dmax [3]: 70 to 90%
DC50 [3]: 1 to 10 nM
Selectivity in MV411 [3]: A (A (>500 fold))

C#Cc1cc(Cl)c(CNC(=O)[C@@H]2C[C@@H](O)CN2C(=O)[C@@H](NC(=O)[C@H]2CC3(C2)C[C@H](N2CCC(N4CCC(N5CCN6c7cc(-c8ccccc8O)nnc7NC[C@H]6C5)CC4)CC2)C3)C(C)(C)C)c(OC)c1 (stereo partly drawn) [I-329]
DC50 [1]: > 100 nM
DC50 [2]: > 100 nM
Selectivity in MV411 [3]: D (D (<10 fold))

Cc1ncsc1-c1ccc(CNC(=O)[C@@H]2C[C@@H](O)CN2C(=O)[C@@H](NC(=O)[C@H]2CCC3(CC2)C[C@H](N2CCC(c4ccc(N5CCN6c7cc(-c8ccccc8O)nnc7NC[C@H]6C5)nc4)CC2)C3)C(C)(C)C)cc1 (stereo partly drawn) [I-94]
SMARCA2 MSD A549 degradation 24 h: Average Dmax % [1]: A (A (>90% degradation))
DC50 [1]: 10 to 50 nM
SMARCA4 MSD MV411 degradation 24 h: average Dmax % [2]: C (C (50-70% degradation))
DC50 [2]: 10 to 100 nM
SMARCA2 MSD MV411 degradation 24 h: average Dmax % [3]: B (B (>70-90% degradation))
DC50 [3]: 1 to 10 nM
Selectivity in MV411 [3]: C (C (10-100 fold))

Cc1ncsc1-c1ccc(CNC(=O)[C@@H]2C[C@@H](O)CN2C(=O)C(c2cc(N3CC4(CCC(N5CCC(c6cnc(N7CCc8[nH]c9nnc(-c%10ccccc%10O)cc9c8[C@@H]7C)nc6)CC5)CC4)C3)no2)C(C)C)cc1 (single isomer, unassigned) [I-9]
Dmax [1]: 70 to 90%
DC50 [1]: 10 to 50 nM
Dmax [2]: 70 to 90%
DC50 [2]: 10 to 100 nM
Dmax [3]: > 90%
DC50 [3]: 1 to 10 nM
Selectivity in MV411 [3]: C (C (10-100 fold))

C#Cc1ccc(CNC(=O)[C@@H]2C[C@@H](O)CN2C(=O)[C@@H](NC(=O)N2CC3(CC(N4CCC(c5cnc(N6CCN7c8cc(-c9ccccc9O)nnc8NC[C@H]7C6)nc5)CC4)C3)C2)C(C)(C)C)cc1 [I-111]
Dmax [1]: > 90%
DC50 [1]: < 10 nM
Dmax [2]: > 90%
DC50 [2]: 10 to 100 nM
Dmax [3]: > 90%
DC50 [3]: < 1 nM
Selectivity in MV411 [3]: C (C (10-100 fold))

C#Cc1ccc(CNC(=O)[C@@H]2C[C@@H](O)CN2C(=O)[C@@H](NC(=O)[C@H]2CCC3(CC2)C[C@H](N2CCC(c4ccc(N5CCN6c7cc(-c8ccccc8O)nnc7NC[C@H]6C5)nc4)CC2)C3)C(C)(C)C)cc1 (single isomer, unassigned) [I-156]
SMARCA2 MSD A549 degradation 24 h: Average Dmax % [1]: A (A (>90% degradation))
DC50 [1]: 10 to 50 nM
SMARCA4 MSD MV411 degradation 24 h: average Dmax % [2]: B (B (>70-90% degradation))
DC50 [2]: 10 to 100 nM
SMARCA2 MSD MV411 degradation 24 h: average Dmax % [3]: B (B (>70-90% degradation))
DC50 [3]: 1 to 10 nM
Selectivity in MV411 [3]: C (C (10-100 fold))

C#Cc1ccc(CNC(=O)[C@@H]2C[C@@H](O)CN2C(=O)[C@@H](NC(=O)N2CC3(CC(N4CCC(N5CCC(N6CCc7[nH]c8nnc(-c9ccccc9O)cc8c7[C@H]6C)CC5)CC4)C3)C2)C(C)(C)C)c(OC)c1 [I-183]
Dmax [1]: > 90%
DC50 [1]: > 100 nM
Dmax [2]: 70 to 90%
DC50 [2]: > 100 nM
Dmax [3]: 70 to 90%
DC50 [3]: 10 to 100 nM
Selectivity in MV411 [3]: C (C (10-100 fold))

C#Cc1ccc(CNC(=O)[C@@H]2C[C@@H](O)CN2C(=O)[C@@H](NC(=O)N2CC3(CC(N4CCC(c5cnc(N6CCc7[nH]c8nnc(-c9ccccc9O)cc8c7[C@H]6C)nc5)CC4)C3)C2)C(C)(C)C)cc1F [I-310]
Dmax [1]: > 90%
DC50 [1]: 10 to 50 nM
Dmax [2]: > 90%
DC50 [2]: > 100 nM
Dmax [3]: > 90%
DC50 [3]: 1 to 10 nM
Selectivity in MV411 [3]: C (C (10-100 fold))
